We go through three molecules from article PMC11219860, “A chemogenetic approach for dopamine imaging with tunable sensitivity” (Nature Communications, 2024).

One assay has as its system NAc DRD1-MSNs. In words: Footshock-induced NAc DRD1-MSN activity (jGCaMP8m photometry). As to conditions: DETQ 10 mg/kg; SCH-23390 0.1 mg/kg i.p.
The conditions of assay [1]: ref Svensson et al 2019; Meltzer et al., 2019; Rajagopal et al., 2024; cited from earlier work.
For another assay, the system named is AlloLite-ctr. In words: In vivo photometry of AlloLite-ctr in NAc. More on the design: species or system mouse. To be noted: cocaine 20 mg/kg. The procedure:
Fiber photometry combined with optogenetics was conducted using a RZ10X LUX-I/O Processor with integrated LEDs (Tucker-Davis Technologies) combined with a filter/mirror minicube set (FMC6_IE(400-410)_E1(467-497)_F1(507-554)_E2(566-586)_F2(600-680)_S) (Doric Lenses). […] Low-autofluorescence patch cords (400 µm/0.57 NA, Doric) were attached to the optic fibers (400 µm/0.66 NA, Doric) on the mouse’s head to collect fluorescence emissions. Signals were filtered through 500–540 nm GFP emission filters coupled to a photodetector on the RZ10X. […] Data were sampled at 1017.3 Hz. […] For optogenetic stimulation, a 635 nm LED was passed through the 580–680 nm minicube F2 port and reached the mouse through the same unique optic fiber; the LED was driven at 1 to 3 mW. To determine the ‘temporal window for stable imaging’ in the PFC using dLight1.3b recordings, DAT^IREScre mice expressing ChrimsonR in VTA DA axons and dLight1.3b in the PFC were injected i.p. with vehicle at 0 min, followed by DETQ (10 mg/kg) 25 min later. […] DA release was measured with fiber photometry. […] After each injection, NAc DA axons were optically (opto) activated across 3 trials (2 s, 20 Hz, 20-ms pulses) every 5 min and DA released measured with fiber photometry. […] After each injection, NAc DA axons were optically (opto) inhibited (10 s, continuous trials) every 3 min (8 trials/condition) and DA released measured with fiber photometry. […] DA release was measured with fiber photometry.
For long-term recordings during optogenetic stimulation or chemogenetic inhibition linear fit was calculated across the entire recording or across the vehicle epoch; for event-related experiments fit was performed on fluorescent data obtained in the −60 to +60 s around opto events or −5 to −1 s around behavioral events. […] DA event-related responses were quantified by computing the value at the transient’s peak value and the AUC in the 0 to 10 s or 0 to 60 s period post-event onset. […]

Assay [2] deals with T1, mouse DA transporter (DAT) (Mus musculus, UniProt Q61327).
T1 construct: Lack of DETQ effect on the endogenous DA transporter; from tissue; host or cells: mouse striatal brain slices
The assay is described as follows: Fast-scan cyclic voltammetry of DA release in striatal slices. As to conditions: bath application: DETQ 200 nM; cocaine 5 µM. The procedure: Striatal DA release was measured using fast-scan cyclic voltammetry (FSCV) with a carbon fiber electrode (CFE; diameter 7 µm, length 50–100 µm) positioned approximately 100 µm below the surface of the slice. The CFE was scanned across a triangular waveform (−0.4 to +1.3 V, 400 V/s) at 10 Hz, and DA release was evoked by single-pulse electrical stimulation (30 µA, 0.5 ms) with an inter-stimulus interval of 180 s. DA release was evoked in the presence of DHBE (1 µM) to block nicotinic acetylcholine receptors. Peak background-subtracted DA oxidation current was measured at +0.6 V, and drugs were washed on after establishing a stable baseline.

The subject of the next assay is dLight1.3b. In words: In vivo photometry of optogenetically-evoked DA release in PFC. As to conditions: cocaine 20 mg/kg after DETQ 10 mg/kg. More on the design: species or system mouse. The procedure: Fiber photometry combined with optogenetics was conducted using a RZ10X LUX-I/O Processor with integrated LEDs (Tucker-Davis Technologies) combined with a filter/mirror minicube set (FMC6_IE(400-410)_E1(467-497)_F1(507-554)_E2(566-586)_F2(600-680)_S) (Doric Lenses). […] Low-autofluorescence patch cords (400 µm/0.57 NA, Doric) were attached to the optic fibers (400 µm/0.66 NA, Doric) on the mouse’s head to collect fluorescence emissions. Signals were filtered through 500–540 nm GFP emission filters coupled to a photodetector on the RZ10X. […] Data were sampled at 1017.3 Hz. […] For optogenetic stimulation, a 635 nm LED was passed through the 580–680 nm minicube F2 port and reached the mouse through the same unique optic fiber; the LED was driven at 1 to 3 mW. To determine the ‘temporal window for stable imaging’ in the PFC using dLight1.3b recordings, DAT^IREScre mice expressing ChrimsonR in VTA DA axons and dLight1.3b in the PFC were injected i.p. with vehicle at 0 min, followed by DETQ (10 mg/kg) 25 min later. After each injection, PFC DA axons were optically (opto) activated across 5 trials (2 s, 20 Hz, 20-ms pulses) for the vehicle (20 min) and […] for DETQ (1h05 min) every 5 min. DA release was measured with fiber photometry. In another session, the same mice were injected with Veh, then DETQ (10 mg/kg) 20 min later, then cocaine (20 mg/kg) 25 min later, and the same optogenetic protocol was applied (2 s, 20 Hz, 20-ms pulses every 5 min). For optogenetic validation of AlloLite-ctr in the NAc, DAT^IREScre mice expressing ChrimsonR in VTA DA axons were injected i.p. with vehicle (Day 1) or DETQ (10 mg/kg) (Day 8) at 0 min, followed by cocaine (20 mg/kg) 20 min later. After each injection, NAc DA axons were optically (opto) activated across 3 trials (2 s, 20 Hz, 20-ms pulses) every 5 min and DA released measured with fiber photometry. […] After each injection, NAc DA axons were optically (opto) inhibited (10 s, continuous trials) every 3 min (8 trials/condition) and DA released measured with fiber photometry. […] DA release was measured with fiber photometry.
For long-term recordings during optogenetic stimulation or chemogenetic inhibition linear fit was calculated across the entire recording or across the vehicle epoch; for event-related experiments fit was performed on fluorescent data obtained in the −60 to +60 s around opto events or −5 to −1 s around behavioral events. […] DA event-related responses were quantified by computing the value at the transient’s peak value and the AUC in the 0 to 10 s or 0 to 60 s period post-event onset. […] The maximal peak value of Veh-normalized ΔF/F0 after opto-onset was plotted over time and the plateau of maximal response was determined by averaging peak opto responses 5, 10, 15 and 20 min post-DETQ. […]

A short description of a further assay: Open field behavior. The format is in vivo, mouse. As to conditions: untethered mice, 45 min; DETQ 3, 10, 30 mg/kg i.p.; cocaine 20 mg/kg. The method, then: For combined locomotion/photometry experiments in the open field (OF) in tethered mice, a 50 × 50 cm arena was used. Fiber photometry was conducted using a Doric photometry rig combined with a filter/mirror minicube set (Doric Lenses), as above. […] Data were sampled at 122 Hz. […] Mice were habituated to the chamber for 3 consecutive days (30 minutes per day). On experimental days, locomotor activity was video recorded and synchronized with fiber photometry signal recording. The baseline DA signal was recorded for 20 minutes, then the mouse received i.p. injection of vehicle or DETQ (10 mg/kg) in interleaved sessions. Following injection, the DA signal was recorded for an additional 90 minutes. The OF chamber was cleaned with ethanol and water between mice. Recording sessions were repeated at 48 hours intervals. Mouse behavior as well as photometry signals were analyzed with a custom-written MATLAB script. Mouse locomotion was computed using the body center point of the animal. The center zone of the arena was defined automatically during behavior data analysis as the 25 × 25 cm square with the central point aligned to the center of the open field. The distance moved and time spent in the center zone were quantified in 10 minutes time bins and as the total during the 90 minutes after ip injections. To test the dose-dependent effects of DETQ on locomotion in untethered mice, mice were injected i.p. with vehicle, DETQ (3, 10 or 30 mg/kg) or cocaine (20 mg/kg) while their locomotor activity was recorded in an OF arena (60 x 60 cm) for 45 min. Videos were recorded with a Logitech C270 camera and analyzed with DeepLabCut (version 2.1.8.2)[84] on an existing open field network. Representative traces were generated with the Anymaze (v7.2) software (Stoelting Co.).

A further assay deals with T2, hM4Di in VTA DA neurons (Homo sapiens, UniProt P08173, A203G/Y113C).
T2 construct: mCherry; expressed in transfected cells; host or cells: VTA dopamine neurons of DAT-IRES-cre mice, Cre-dependent AAV5
The assay is described as follows: Chemogenetic inhibition of VTA DA neurons with NAc dLight1.3b photometry. Format: in vivo, mouse. As to conditions: J60 0.2 or 1 mg/kg, 10 minutes after DETQ. The procedure:
Fiber photometry combined with optogenetics was conducted using a RZ10X LUX-I/O Processor with integrated LEDs (Tucker-Davis Technologies) combined with a filter/mirror minicube set (FMC6_IE(400-410)_E1(467-497)_F1(507-554)_E2(566-586)_F2(600-680)_S) (Doric Lenses). […] Low-autofluorescence patch cords (400 µm/0.57 NA, Doric) were attached to the optic fibers (400 µm/0.66 NA, Doric) on the mouse’s head to collect fluorescence emissions. Signals were filtered through 500–540 nm GFP emission filters coupled to a photodetector on the RZ10X. […] Data were sampled at 1017.3 Hz. […] DA release was measured with fiber photometry. […] After each injection, NAc DA axons were optically (opto) activated across 3 trials (2 s, 20 Hz, 20-ms pulses) every 5 min and DA released measured with fiber photometry. […] After each injection, NAc DA axons were optically (opto) inhibited (10 s, continuous trials) every 3 min (8 trials/condition) and DA released measured with fiber photometry. […] DA release was measured with fiber photometry.
For long-term recordings during optogenetic stimulation or chemogenetic inhibition linear fit was calculated across the entire recording or across the vehicle epoch; for event-related experiments fit was performed on fluorescent data obtained in the −60 to +60 s around opto events or −5 to −1 s around behavioral events. […]

T1 sequence (Q61327 whole entry): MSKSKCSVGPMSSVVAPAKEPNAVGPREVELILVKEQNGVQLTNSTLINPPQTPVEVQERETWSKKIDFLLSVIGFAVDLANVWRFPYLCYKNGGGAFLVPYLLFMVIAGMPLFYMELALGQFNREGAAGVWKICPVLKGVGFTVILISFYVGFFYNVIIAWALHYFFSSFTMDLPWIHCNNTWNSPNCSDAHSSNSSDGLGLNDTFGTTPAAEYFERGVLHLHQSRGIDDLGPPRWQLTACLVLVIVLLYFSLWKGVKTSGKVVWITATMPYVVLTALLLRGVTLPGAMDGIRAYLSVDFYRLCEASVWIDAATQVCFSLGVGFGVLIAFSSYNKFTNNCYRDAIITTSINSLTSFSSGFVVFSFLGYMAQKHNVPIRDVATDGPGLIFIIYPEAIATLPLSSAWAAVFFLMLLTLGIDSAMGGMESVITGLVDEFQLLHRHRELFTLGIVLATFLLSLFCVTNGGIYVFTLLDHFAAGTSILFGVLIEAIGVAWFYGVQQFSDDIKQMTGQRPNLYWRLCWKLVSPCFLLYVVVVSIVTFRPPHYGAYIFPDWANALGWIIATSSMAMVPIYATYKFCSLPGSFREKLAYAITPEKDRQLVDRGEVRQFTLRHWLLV
T2 sequence (P08173 whole entry Y113C/A203G): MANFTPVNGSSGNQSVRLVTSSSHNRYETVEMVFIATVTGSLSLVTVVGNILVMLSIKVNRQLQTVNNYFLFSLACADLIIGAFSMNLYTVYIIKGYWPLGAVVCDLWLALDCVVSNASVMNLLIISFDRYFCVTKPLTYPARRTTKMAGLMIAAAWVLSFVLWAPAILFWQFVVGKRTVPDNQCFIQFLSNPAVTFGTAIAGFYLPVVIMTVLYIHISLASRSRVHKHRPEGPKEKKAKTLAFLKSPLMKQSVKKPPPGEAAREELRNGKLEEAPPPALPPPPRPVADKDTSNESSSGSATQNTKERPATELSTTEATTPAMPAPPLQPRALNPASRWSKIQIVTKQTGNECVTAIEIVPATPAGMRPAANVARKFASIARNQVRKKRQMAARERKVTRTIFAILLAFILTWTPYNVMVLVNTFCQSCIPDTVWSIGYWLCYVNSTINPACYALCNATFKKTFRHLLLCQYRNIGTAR
Method for NAc DRD1-MSNs: Cue-reward paradigm (NAc recordings) was carried out in an operant chamber within a sound-attenuating box with low red light illumination (30 Lux). […] During the next session mice were trained to initiate reward delivery via licking. […] During expert sessions CS-US pairings were repeated 20 times per session ( ~ 30 min for each session). Mice underwent a total of 12 sessions for cue-reward learning. 10 minutes before each session drugs were injected i.p. […] The rewards were delivered from 10 to 40 min post vehicle or DETQ injection. Chambers and lick ports were sanitized with ethanol between mice. For all sessions, lick data and photometry recordings were simultaneously obtained; licking behaviour was detected by a capacity-based sensor. Latency to reward-anticipatory licking was calculated as the time between the CS and lick onset. The lick proportion was calculated as the percent time mice spent licking during CS presentation divided by the percent time mice spent licking during the rest of the session (without CS). […] Fiber photometry recordings were analyzed using custom-written Matlab scripts. […] Change in fluorescence, ΔF/F0 (%), was defined as (F-F0)/F0 x 100, where F represents the fluorescent signal (465-nm) at each time point. F0 was calculated by applying a least-squares linear fit (polyfit) to the 405-nm signal to align with the 465-nm signal. […]

With `CN1CCc2cc(Cl)c(O)cc2[C@@H](c2ccccc2)C1` [SCH-23390], the “footshock-induced activity in NAc DRD1-MSNs” value in the assay with NAc DRD1-MSNs was “reduces”. Also, in assay [1], the “behavioral effect of DETQ in hD1 mice” value was “blocked”.

Consider `COC(=O)[C@H]1[C@@H](OC(=O)c2ccccc2)C[C@@H]2CC[C@H]1N2C` [cocaine], for which the “decay time of opto-evoked DA peaks” value in the assay with AlloLite-ctr is listed as “increased decay time”. In assay [2], the “decay constant (tau) of DA signals” value was “slowed the decay” and the “peak DA release” value was “significantly increased”. Also, in the assay with dLight1.3b, the “baseline fluorescence of the sensor after DETQ” value was “further boosted”. Further, the “locomotion in open field” value in “Open field behavior” is “increase”.

As to `CCN1CCN(C2=Nc3cc(Cl)ccc3Nc3c(F)cccc32)CC1` [J60], the “step-like increase in dLight1.3b baseline signal observed with DETQ” value on hM4Di in VTA DA neurons was “dose-dependently decreased”.
